Measured values: the supplement of paper PMC7108870

Legend:
HEK293sieSTAT3(Y640F) [1] = assay: drug sensitivity score (DSS), cytotoxicity CellTox Green (DSS (dimensionless)); higher = more cytotoxic; extreme values may be limits of the assay; settings: 72 h; STAT3 variant: Y640F (constitutively active)
Outline: (§1)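 HEK293 cells with a STAT3-dependent luciferase reporter, overexpressing either wild-type or mutant STAT3, were dispensed (20 μl at 100,000 cells/ml) into 384-well plates holding compounds acoustically pre-plated at 5 concentrations in 10-fold dilutions. The plates were kept for 72 hours at 37°C and 5% CO2, then CellTox Green fluorescence (485/520 nm) followed by CellTiter-Glo luminescence was read on a PHERAstar FS. Breeze was used to compute a drug sensitivity score from the dose-response curve area after normalisation to negative and positive control wells, and each value comes from one representative of two experiments.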

HEK293sieSTAT3(wt) [2] = assay: as above; settings: 72 h; STAT3 variant: wild type
Outline: as §1

HEK293sieSTAT3(Y640F) [3] = assay: drug sensitivity score (DSS), viability CellTiter-Glo (DSS (dimensionless)); higher = more growth inhibition; extreme values may be limits of the assay; settings: 72 h; STAT3 variant: Y640F (constitutively active)
Outline: as §1

HEK293sieSTAT3(wt) [4] = assay: as above; settings: 72 h; STAT3 variant: wild type
Outline: as §1

Row | SMILES | drug sensitivity score (HEK293sieSTAT3(Y640F) [1]) | drug sensitivity score (HEK293sieSTAT3(wt) [2]) | drug sensitivity score (HEK293sieSTAT3(Y640F) [3]) | drug sensitivity score (HEK293sieSTAT3(wt) [4])
1 | Cc1cc(Nc2cc(N3CCN(C)CC3)nc(/C=C/c3ccccc3)n2)n[nH]1 [ENMD-2076] (top concentration tested 10000 nM) | 0.61 | 5.35 | 9.67 | 10.7
2 | Cc1cc(C)c(CNC(=O)c2cc(-c3ccc(CN4CCOCC4)cc3)cc3c2cnn3C2CCCC2)c(=O)[nH]1 [EPZ-5687] (top concentration tested 10000 nM) | 0 | 0 | 0 | 0
3 | COC(=O)N[C@@H](C)CNc1nccc(-c2cn(C(C)C)nc2-c2cc(Cl)cc(NS(C)(=O)=O)c2F)n1 [Encorafenib] (top concentration tested 1000 nM) | 0 | 0 | 0.92 | 3.05
4 | Nc1ccccc1NC(=O)c1ccc(CNC(=O)OCc2cccnc2)cc1 [Entinostat] (top concentration tested 10000 nM) | 0.1 | 1.29 | 8.12 | 8.98
5 | c1cn2cc(-c3ccc4cn[nH]c4c3)nc(Nc3ccc(N4CCOCC4)cc3)c2n1 [Entospletinib] (top concentration tested 5000 nM) | 0 | 0 | 0 | 0
6 | CNC(=O)c1ccc(N2C(=S)N(c3ccc(C#N)c(C(F)(F)F)c3)C(=O)C2(C)C)cc1F [Enzalutamide] (top concentration tested 10000 nM) | 0 | 0 | 0.6 | 0
7 | Cn1cc(C2=C(c3cn(C4CCN(Cc5ccccn5)CC4)c4ccccc34)C(=O)NC2=O)c2ccccc21 [Enzastaurin] (top concentration tested 10000 nM) | 0 | 0 | 1.73 | 1.34
8 | NS(=O)(=O)NCCNc1nonc1/C(=N/O)Nc1ccc(F)c(Br)c1 [Epacadostat] (top concentration tested 10000 nM) | 0 | 0 | 1.76 | 0.37
9 | C#Cc1cccc(Nc2ncnc3cc(OCCOC)c(OCCOC)cc23)c1 [Erlotinib] (top concentration tested 10000 nM) | 0 | 0 | 3.21 | 2.99
10 | C[C@]12CC[C@@H]3c4ccc(OC(=O)N(CCCl)CCCl)cc4CC[C@H]3[C@@H]1CC[C@@H]2O [Estramustine] (top concentration tested 10000 nM) | 0 | 0.3 | 0.65 | 0
11 | COc1cc([C@@H]2c3cc4c(cc3[C@@H](O[C@@H]3O[C@@H]5CO[C@@H](C)O[C@H]5[C@H](O)[C@H]3O)[C@H]3COC(=O)[C@H]23)OCO4)cc(OC)c1O [Etoposide] (top concentration tested 10000 nM) | 3.46 | 7.94 | 17.6 | 20
12 | CO[C@H]1C[C@@H]2CC[C@@H](C)[C@@](O)(O2)C(=O)C(=O)N2CCCC[C@H]2C(=O)O[C@H]([C@H](C)C[C@@H]2CC[C@@H](OCCO)[C@H](OC)C2)CC(=O)[C@H](C)/C=C(\C)[C@@H](O)[C@@H](OC)C(=O)[C@H](C)C[C@H](C)/C=C/C=C/C=C/1C [Everolimus] (top concentration tested 100 nM) | 0 | 0 | 8.23 | 11.3
13 | C=C1C[C@@H]2[C@H](CC[C@]3(C)C(=O)CC[C@@H]23)[C@@]2(C)C=CC(=O)C=C12 [Exemestane] (top concentration tested 10000 nM) | 0 | 0 | 3.39 | 3.65
14 | Cc1nc(C(=O)NCC(=O)O)c(O)c2ccc(Oc3ccccc3)cc12 [FG-4592] (top concentration tested 10000 nM) | 0 | 0 | 1.3 | 2.23
15 | CCn1c(=O)c(-c2ccc(Cl)cc2Cl)cc2cnc(Nc3ccc(N4CCNCC4)c(F)c3)nc21 [FRAX486] (top concentration tested 5000 nM) | 0 | 6.75 | 6.38 | 9.57
16 | O=S(=O)(c1cccc2cnccc12)N1CCCNCC1 [Fasudil] (top concentration tested 50000 nM) | 2.11 | 4.45 | 4.74 | 3.23
17 | Cc1cnc(Nc2ccc(OCCN3CCCC3)cc2)nc1Nc1cccc(S(=O)(=O)NC(C)(C)C)c1 [Fedratinib] (top concentration tested 10000 nM) | 5.36 | 9.22 | 7.35 | 8.5

Row | SMILES | drug sensitivity score (HEK293sieSTAT3(Y640F) [1]) | drug sensitivity score (HEK293sieSTAT3(wt) [2]) | drug sensitivity score (HEK293sieSTAT3(Y640F) [3]) | drug sensitivity score (HEK293sieSTAT3(wt) [4])
18 | CON(C)C(=O)N1N=C(c2cc(F)ccc2F)S[C@@]1(CCCN)c1ccccc1 [Filanesib] (top concentration tested 1000 nM) | 0.58 | 17 | 15 | 21.2
19 | O=C(Nc1nc2cccc(-c3ccc(CN4CCS(=O)(=O)CC4)cc3)n2n1)C1CC1 [Filgotinib] (top concentration tested 10000 nM) | 5.91 | 6.22 | 8.86 | 6.84
20 | CC(C)(C)NC(=O)[C@H]1CC[C@H]2[C@@H]3CC[C@H]4NC(=O)C=C[C@]4(C)[C@H]3CC[C@]12C [Finasteride] (top concentration tested 10000 nM) | 0.18 | 1.18 | 3.82 | 1.63
21 | CCCCCCCCc1ccc(CCC(N)(CO)CO)cc1 [Fingolimod] (top concentration tested 10000 nM) | 5.85 | 7.2 | 6.17 | 8.27
22 | O=c1[nH]c(=O)n([C@H]2C[C@H](O)[C@@H](CO)O2)cc1F [Floxuridine] (top concentration tested 10000 nM) | 0.42 | 1.28 | 27.2 | 29
23 | Nc1nc(F)nc2c1ncn2[C@@H]1O[C@H](CO)[C@@H](O)[C@@H]1O [Fludarabine] (top concentration tested 10000 nM) | 0 | 0 | 0.19 | 3.07
24 | O=c1[nH]cc(F)c(=O)[nH]1 [Fluorouracil] (top concentration tested 10000 nM) | 0 | 0 | 6.62 | 6.27
25 | CC(C)C(=O)Nc1ccc([N+](=O)[O-])c(C(F)(F)F)c1 [Flutamide] (top concentration tested 10000 nM) | 0 | 0 | 0.25 | 0
26 | COc1cc2c(Oc3ccc(NC(=O)C4(C(=O)Nc5ccc(F)cc5)CC4)cc3F)ccnc2cc1OCCCN1CCOCC1 [Foretinib] (top concentration tested 1000 nM) | 0 | 5.97 | 6.63 | 5.99
27 | COc1cc(Nc2ncc(F)c(Nc3ccc4c(n3)N(COP(=O)(O)O)C(=O)C(C)(C)O4)n2)cc(OC)c1OC [Fostamatinib] (top concentration tested 2500 nM) | 2.07 | 3.18 | 4.33 | 4.18
28 | C[C@]12CC[C@@H]3c4ccc(O)cc4C[C@@H](CCCCCCCCC[S+]([O-])CCCC(F)(F)C(F)(F)F)[C@H]3[C@@H]1CC[C@@H]2O (stereo partly specified) [Fulvestrant] (top concentration tested 1000 nM) | 0 | 0.46 | 1.69 | 1.8
29 | O=C(NOCCO)c1ccc2cncn2c1Nc1ccc(I)cc1F [GDC-0623] (top concentration tested 2500 nM) | 0 | 0 | 0 | 0
30 | Cn1nccc1Nc1nccc(-c2ccn([C@H](CO)c3ccc(Cl)c(F)c3)c(=O)c2)n1 [GDC-0994] (top concentration tested 10000 nM) | 0 | 0 | 8.52 | 6.43
31 | CNc1nc(Nc2cn(C(C)(C)C#N)nc2C)ncc1C(F)(F)F [GNE-0877] (top concentration tested 1000 nM) | 0 | 0 | 3.78 | 0.56
32 | CCNc1nc(Nc2cc(F)c(C(=O)N3CCOCC3)cc2OC)ncc1C(F)(F)F [GNE-7915] (top concentration tested 1000 nM) | 0 | 0 | 4.87 | 2.71
33 | CCCc1cc(C)[nH]c(=O)c1CNC(=O)c1cc(-c2ccnc(N3CCN(C)CC3)c2)cc2c1cnn2C(C)C [GSK343] (top concentration tested 10000 nM) | 5.89 | 6.89 | 6.55 | 7.6
34 | CCCOc1ccn2c(C(C)=O)cc(-c3ccccc3S(C)(=O)=O)c2c1 [GSK2801] (top concentration tested 10000 nM) | 0 | 0 | 0 | 0
